Assay results: paper PMC4619319, “A potent anti-inflammatory peptide from the salivary glands of horsefly” (Parasites & Vectors, 2015)

How the values were obtained:
P-JNK1 = assay: Western blot, LPS-induced P-JNK1 in peritoneal macrophages; format: cell-based, mouse; conditions: 20 μg/mL peptide, 100 ng/mL LPS, 30 min, band density ratio to β-actin
Experimental: (§1) Cells were treated with different concentrations of cecropin-TY1 (0, 5, 10, and 20 μg/mL) in the presence or absence of 100 ng/mL LPS (from E. coli 0111:B4, Sigma-Aldrich, USA). After 30-min incubation, cells were washed twice with ice-cold PBS and lysed with RIPA lysis buffer (Beyotime, China) on ice for 30 min according to our previous method. Protein concentration was quantified by BCA Protein Assay Kit (Thermo, Germany). About 40 μg protein was separated on a 10 % SDS-PAGE gel and transferred to a polyvinylidene difluoride membrane. The membrane was blocked by incubating with 5 % BSA (BD, USA) dissolved in Tris-buffered solution Tween-20 (TBST, 2.42 g/L Trisbase, 8 g/L NaCl, 0.1 % Tween 20, pH 7.6) for 2 h at room temperature. The membrane was then incubated with primary antibodies against ERK, phospho-ERK, p38, phospho-p38, JNK, phospho-JNK, phospho-IκBα, NF-κB p65 and phospho-NF-κB p65 (1:2000, Cell Signaling Technology, USA) and GAPDH/β-actin (1:5000, Santa Cruz Biotechnology, USA) overnight at 4 °C, respectively. After incubation, the immunoblot was washed three times with TBST for 5 min each time, and incubated with secondary antibody (1:5000, Cell Signaling Technology, USA) at room temperature for 1 h. Signals were measured by enhanced chemiluminescence kit in a dark room after washing three times with TBST for 10 min each time (TIANGEN, China).

[1] = cited from earlier work
From the text: Supplement 13071_2015_1149_MOESM1_ESM.docx, table 2: Table S2. Primary structural and biochemical characteristics of cecropin-TY1. | column: […]-NH2 39 +5 3970.22 Da 3970.66 Da 11.17

[2] = Circular dichroism, secondary structural components; format: physicochemical; conditions: CD, 25 °C, average of three scans
Experimental: CD spectra were collected on a Jasco-810 spectropolarimeter (Jasco, Tokyo, Japan) with a 1-mm path-length cell at 25 °C and 0.2-nm intervals from 190 to 260 nm. Cecropin-TY1 was dissolved in H2O, TFE/water solution, SDS/water solution and LPS/water solution at the concentration of 0.2 mg/mL. The data from three scans were averaged and smoothed using the Jasco-810 software for each spectrum. CD data were expressed as the mean residue ellipticity (θ) in deg.cm^2.dmol^−1.

P-ERK2 = assay: Western blot, LPS-induced P-ERK2 in peritoneal macrophages; format: cell-based, mouse; conditions: 20 μg/mL peptide, 100 ng/mL LPS, 30 min, band density ratio to β-actin
Experimental: as §1

nitrite production = assay: LPS-stimulated nitrite (NO) production in peritoneal macrophages; format: cell-based, mouse; conditions: 100 ng/mL LPS, 24 h
Experimental: Cells were incubated with peptides (0, 5, 10, and 20 μg/mL) in the presence or absence of LPS (100 ng/mL, from Escherichia coli 0111:B4, Sigma-Aldrich, USA). After 6-h incubation, cells in one plate were washed twice with ice-cold PBS and lysed by Trizol reagent (Life Tech, USA) for total RNA extraction. PrimeScript® Reverse Transcriptase Kit (Takara, Japan) was used to synthesize cDNA for qPCR to examine the transcription levels of inducible nitric oxide synthase (iNOS), which is necessary for NO production. After 24-h incubation, culture medium of each wells of another plate was harvested for nitrite detection, which indirectly reflected the NO production. Nitrite accumulation levels were determined by NO detection kit (Beyotime, China) following the kit instruction.

P-p38 = assay: Western blot, LPS-induced P-p38 in peritoneal macrophages; format: cell-based, mouse; conditions: 20 μg/mL peptide, 100 ng/mL LPS, 30 min, band density ratio to β-actin
Experimental: as §1

IL-1β transcription = assay: LPS-stimulated IL-1β transcription in peritoneal macrophages (qPCR); format: cell-based, mouse; conditions: 20 μg/mL peptide, 100 ng/mL LPS, 6 h
Experimental: qPCR was performed using SYBR green master mix (Takara, Japan) on a Realplex Mastercycler real-time PCR system (Eppendorf, Germany) according to the manufacturer’s instruction. The gene transcription levels were normalized to GAPDH or β-actinas as illustrated in figure legends and calculated by ΔΔCt method. The accuracy of qPCR results were checked by melting curve analysis. qPCR primers were listed in Additional file 1: Table S1.
Cells were incubated with peptides (0, 5, 10, and 20 μg/mL) with or without 100 ng/mL LPS (from E. coli 0111:B4, Sigma-Aldrich, USA) for 6 h. After treatment, culture medium was collected for TNF-α, IL-1β and IL-6 quantification using enzyme-linked immunosorbent assay (ELISA) kits (Dakewei, China). Cells were washed with ice-cold PBS and lysed by Trizol reagent (Life Tech, USA). Total RNA was extracted for cDNA synthesis to quantify TNF-α, IL-1β and IL-6 transcription levels by qPCR as described in qPCR section.

P-ERK1 = assay: Western blot, LPS-induced P-ERK1 in peritoneal macrophages; format: cell-based, mouse; conditions: 20 μg/mL peptide, 100 ng/mL LPS, 30 min, band density ratio to β-actin
Experimental: as §1

[3] = LPS 50 ng/mL in water, peptide 0.2 mg/mL
[4] = LPS 100 ng/mL in water, peptide 0.2 mg/mL
[5] = LPS 200 ng/mL in water, peptide 0.2 mg/mL
[6] = LPS 400 ng/mL in water, peptide 0.2 mg/mL
[7] = SDS 5 mM in water, peptide 0.2 mg/mL
[8] = SDS 10 mM in water, peptide 0.2 mg/mL
[9] = SDS 20 mM in water, peptide 0.2 mg/mL
[10] = SDS 40 mM in water, peptide 0.2 mg/mL

In the case of “GWLKKIGKKIERVGQNVRNAAISTLPIAQGAAGVAGALN-NH2 [cecropin-TY1, cecropin antimicrobial peptide from salivary glands of horsefly Tabanus yao, 39 residues, C-terminally amidated, synthesized]”, the “inhibition of LPS-induced P-JNK1 expression” value (P-JNK1) is given as 61.9%, the Net charges [1] is given as 5 and the “Theoretical pI” value ([1]; theoretical) is given as 11.17. For the same substance, the “Beta (%)” value ([2]; H2O, peptide 0.2 mg/mL) was 0.0%, the “Helix (%)” value ([2]; H2O, peptide 0.2 mg/mL) was 0.0% and the “Random (%)” value ([2]; H2O, peptide 0.2 mg/mL) was 71.1%. The “Turn (%)” value ([2]; H2O, peptide 0.2 mg/mL) was 28.9%, the “Beta (%)” value [2, 3] was 32.4% and the “Helix (%)” value [2, 3] was 0.0%. For the same substance, the “Random (%)” value [2, 3] was 55.2%, the “Turn (%)” value [2, 3] was 12.4% and the “Beta (%)” value [2, 4] was 46.6%. The “Helix (%)” value [2, 4] was 2.9%, the “Random (%)” value [2, 4] was 47.4% and the “Turn (%)” value [2, 4] was 3.1%. The “Beta (%)” value [2, 5] was 44.5%, the “Helix (%)” value [2, 5] was 12.7% and the “Random (%)” value [2, 5] was 41.1%. For the same substance, the “Turn (%)” value [2, 5] was 1.7%, the “Beta (%)” value [2, 6] was 47.8% and the “Helix (%)” value [2, 6] was 14.8%. For the same substance, the “Random (%)” value [2, 6] was 37.2%, the “Turn (%)” value [2, 6] was 0.1% and the “Beta (%)” value [2, 7] was 17.5%. For the same substance, the “Helix (%)” value [2, 7] was 45.3%, the “Random (%)” value [2, 7] was 37.2% and the “Turn (%)” value [2, 7] was 0.0%. For the same substance, the “Beta (%)” value [2, 8] was 22.7%, the “Helix (%)” value [2, 8] was 41.2% and the “Random (%)” value [2, 8] was 36.1%. For the same substance, the “Turn (%)” value [2, 8] was 0.0%, the “Beta (%)” value [2, 9] was 13.4% and the “Helix (%)” value [2, 9] was 46.6%. For the same substance, the “Random (%)” value [2, 9] was 40.0%, the “Turn (%)” value [2, 9] was 0.0% and the “Beta (%)” value [2, 10] was 7.4%. The “Helix (%)” value [2, 10] was 54.4%, the “Random (%)” value [2, 10] was 38.2% and the “Turn (%)” value [2, 10] was 0.0%. For the same substance, the “Beta (%)” value ([2]; TFE/H2O 3:7, peptide 0.2 mg/mL) was 28.7%, the “Helix (%)” value ([2]; TFE/H2O 3:7, peptide 0.2 mg/mL) was 28.4% and the “Random (%)” value ([2]; TFE/H2O 3:7, peptide 0.2 mg/mL) was 42.8%. The “Turn (%)” value ([2]; TFE/H2O 3:7, peptide 0.2 mg/mL) was 0.0%, the “Beta (%)” value ([2]; TFE/H2O 5:5, peptide 0.2 mg/mL) was 22.4% and the “Helix (%)” value ([2]; TFE/H2O 5:5, peptide 0.2 mg/mL) was 36.9%. For the same substance, the “Random (%)” value ([2]; TFE/H2O 5:5, peptide 0.2 mg/mL) was 40.7%, the “Turn (%)” value ([2]; TFE/H2O 5:5, peptide 0.2 mg/mL) was 0.0% and the “Beta (%)” value ([2]; TFE/H2O 7:3, peptide 0.2 mg/mL) was 22.4%. For the same substance, the “Helix (%)” value ([2]; TFE/H2O 7:3, peptide 0.2 mg/mL) was 37.8%, the “Random (%)” value ([2]; TFE/H2O 7:3, peptide 0.2 mg/mL) was 39.9% and the “Turn (%)” value ([2]; TFE/H2O 7:3, peptide 0.2 mg/mL) was 0.0%. For the same substance, the “Beta (%)” value ([2]; TFE/H2O 9:1, peptide 0.2 mg/mL) was 15.0%, the “Helix (%)” value ([2]; TFE/H2O 9:1, peptide 0.2 mg/mL) was 45.1% and the “Random (%)” value ([2]; TFE/H2O 9:1, peptide 0.2 mg/mL) was 39.9%. For the same substance, the “Turn (%)” value ([2]; TFE/H2O 9:1, peptide 0.2 mg/mL) was 0.0%, the “inhibition of LPS-induced P-ERK2 expression” value (P-ERK2) was 84.9% and the “attenuation of LPS-induced nitrite production” value (nitrite production; 5 μg/mL peptide) was “about 40.0%”. The “attenuation of LPS-induced nitrite production” value (nitrite production; 10 μg/mL peptide) was ~63.7%, the “attenuation of LPS-induced nitrite production” value (nitrite production; 20 μg/mL peptide) was ~75.0% and the “inhibition of LPS-induced P-p38 expression” value (P-p38) was 46.4%. The “attenuation of LPS-stimulated IL-1β transcription” value (IL-1β transcription) was 67.5% and the “inhibition of LPS-induced P-ERK1 expression” value (P-ERK1) was 75.5%.
